Test results reported in US10165775B2, “Pesticidal compositions and processes related thereto” (Dow AgroSciences LLC, priority 2011, dated 2019).

Key:
[1] = system: Green Peach Aphid (GPA) (Myrzus persicae) (MYZUPE); experiment: Bioassay on green peach aphid (GPA), foliar spray on cabbage seedlings; format: in vivo; details: Myzus persicae, 72 h, 200 ppm foliar spray, graded after three days, Abbott corrected % control, read-out: MYZUPE % Ctrl @ 200 ppm
Protocol: Certain molecules disclosed in this document were tested against GPA using procedures described in the following example. In the reporting of the results, “Table 3: GPA (MYZUPE) and sweetpotato whitefly-crawler (BEMITA) Rating Table” was used (See Table Section).
Cabbage seedlings grown in 3-inch pots, with 2-3 small (3-5 cm) true leaves, were used as test substrate. The seedlings were infested with 20-50 GPA (wingless adult and nymph stages) one day prior to chemical application. Four pots with individual seedlings were used for each treatment. Test compounds (2 mg) were dissolved in 2 mL of acetone/methanol (1:1) solvent, forming stock solutions of 1000 ppm test compound. The stock solutions were diluted 5× with 0.025% Tween 20 in H2O to obtain the solution at 200 ppm test compound. A hand-held aspirator-type sprayer was used for spraying a solution to both sides of […] leaves until runoff. Reference plants (solvent check) were sprayed with the diluent only containing 20% by volume of acetone/methanol (1:1) solvent. Treated plants were held in a holding room for three days at approximately 25° C. and ambient relative humidity (RH) prior to grading. Evaluation was conducted by counting the number of live aphids per plant under a microscope. Percent Control was measured by using Abbott's correction formula (W. S. Abbott. “A Method of Computing the Effectiveness of an Insecticide” J. Econ. Entomol. 18 (1925), pp. 265-267) as follows. Corrected % Control=100*(X−Y)/X • where • X=No. of live aphids on solvent check plants and • Y=No. of live aphids on treated plants
Biological Data for GPA (MYZUPE) and sweetpotato whitefly-crawler (BEMITA)” (See Table Section).

[2] = system: Sweetpotato whitefly-crawler (Bemisia tabaci) (BEMITA); experiment: Insecticidal test for sweetpotato whitefly-crawler in foliar spray assay on cotton plants; format: in vivo; details: 200 ppm foliar spray, graded after 8-9 days, Abbott corrected % control, read-out: BEMITA % Ctrl @ 200 ppm
Protocol: Cotton plants grown in 3-inch pots, with 1 small (3-5 cm) true leaf, were used as test substrate. The plants were placed in a room with whitefly adults. Adults were allowed to deposit eggs for 2-3 days. After a 2-3 day egg-laying period, plants were taken from the adult whitefly room. Adults were blown off leaves using a hand-held Devilbiss sprayer (23 psi). Plants with egg infestation (100-300 eggs per plant) were placed in a holding room for 5-6 days at 82° F. and 50% RH for egg hatch and crawler stage to develop. Four cotton plants were used for each treatment. Compounds (2 mg) were dissolved in 1 mL of acetone solvent, forming stock solutions of 2000 ppm. The stock solutions were diluted 10× with 0.025% Tween 20 in H2O to obtain a test solution at 200 ppm. A hand-held Devilbiss sprayer was used for spraying a solution to both sides of cotton leaf until runoff. Reference plants (solvent check) were sprayed with the diluent only. Treated plants were held in a holding room for 8-9 days at approximately 82° F. and 50% RH prior to grading. Evaluation was conducted by counting the number of live nymphs per plant under a microscope. Insecticidal activity was measured by using Abbott's correction formula and presented in “Table 4. Biological Data for GPA (MYZUPE) and sweetpotato whitefly-crawler (BEMITA)” (see column “BEMITA”): Corrected % Control=100*(X−Y)/X • where X=No. of live nymphs on solvent check plants • Y=No. of live nymphs on treated plants Pesticidally Acceptable Acid Addition Salts, Salt Derivatives, Solvates, Ester Derivatives, Polymorphs, Isotopes and Radionuclides

melting point	Structure (SMILES)	pest or weed control at 200 ppm [1]	pest or weed control at 200 ppm [2]
–	C#CCN(C(=O)CN(C)S(C)(=O)=O)c1cn(-c2cccnc2)nc1Cl [Compound 623, N-(3-chloro-1-(pyridin-3-yl)-1H-pyrazol-4-yl)-2-(N-methylmethylsulfonamido)-N-(prop-2-yn-1-yl)acetamide]	80 to 100%	80 to 100%
131.5 to 133 °C	Cc1nn(-c2cncc(F)c2)cc1NC(=O)OC(C)(C)C [Compound 111, tert-butyl 1-(5-fluoropyridin-3-yl)-3-methyl-1H-pyrazol-4-ylcarbamate]	–	–
172 to 177 °C	CC(C)C(=O)Nc1cn(-c2cncc(F)c2)nc1CCl [Compound 561, N-(3-(chloromethyl)-1-(5-fluoropyridin-3-yl)-1H-pyrazol-4-yl)isobutyramide]	–	–
–	C#CCN(C(=O)CCSCCC(F)(F)F)c1cn(-c2cccnc2)nc1Cl [Compound 626]	80 to 100%	80 to 100%
–	C#CCN(C(=O)C(SC)C(=O)CSC)c1cn(-c2cccnc2)nc1Cl (stereo not drawn) [Compound 622]	80 to 100%	80 to 100%
–	C#CCN(C(=O)C(C)CSC)c1cn(-c2cccnc2)nc1C (stereo not drawn) [Compound 599]	80 to 100%	0 to 80%
73 to 75 °C	C#CCN(C(=O)OC(C)(C)C)c1cn(-c2cccnc2)nc1C [Compound 596]	80 to 100%	80 to 100%
–	C#CCN(C(=O)C(C)SC)c1cn(-c2cccnc2)nc1Cl (stereo not drawn) [Compound 611, N-(3-chloro-1-(pyridin-3-yl)-1H-pyrazol-4-yl)-2-(methylthio)-N-(prop-2-yn-1-yl)propanamide]	80 to 100%	80 to 100%
–	C#CCN(C(=O)CC(SC)C(F)(F)F)c1cn(-c2cccnc2)nc1Cl (stereo not drawn) [Compound 613, N-(3-chloro-1-(pyridin-3-yl)-1H-pyrazol-4-yl)-4,4,4-trifluoro-3-(methylthio)-N-(prop-2-yn-1-yl)butanamide]	80 to 100%	80 to 100%
98 to 99 °C	C#CCN(C(=O)C(C)C)c1cn(-c2cccnc2)nc1Cl [Compound 610]	80 to 100%	80 to 100%
–	C#CCN(C(=O)CCSC)c1cn(-c2cccnc2)nc1Cl [Compound 607]	80 to 100%	80 to 100%
156.5 to 158 °C	CC(C)(C)OC(=O)Nc1cn(-c2cncc(F)c2)nc1C1CC1 [Compound 434, tert-butyl (3-cyclopropyl-1-(5-fluoropyridin-3-yl)-1H-pyrazol-4-yl)carbamate]	–	–
–	C#CCN(C(=O)CCC(F)(F)F)c1cn(-c2cncc(F)c2)nc1C [Compound 604]	80 to 100%	80 to 100%
68 to 70 °C	C#CCN(C(=O)CCSC(c1ccccc1)(c1ccccc1)c1ccccc1)c1cn(-c2cccnc2)nc1Cl [Compound 624]	–	–
–	C#CCN(C(=O)C(C)CSC)c1cn(-c2cccnc2)nc1Cl (stereo not drawn) [Compound 608]	80 to 100%	80 to 100%
83 to 86 °C	CCN(C(=O)CC(OC)(C(F)(F)F)C(F)(F)F)c1cn(-c2cccnc2)nc1C [Compound 276, N-ethyl-4,4,4-trifluoro-3-methoxy-N-(3-methyl-1-(pyridin-3-yl)-1H-pyrazol-4-yl)-3-(trifluoromethyl)butanamide]	–	–
109 to 112 °C	C#CCN(C(=O)CC(SC)C1CC1)c1cn(-c2cccnc2)nc1Cl (stereo not drawn) [Compound 619]	80 to 100%	80 to 100%
140 to 142 °C	CC(C)C(=O)Nc1cn(-c2cncc(F)c2)nc1C=O [Compound 560, N-(1-(5-fluoropyridin-3-yl)-3-formyl-1H-pyrazol-4-yl)isobutyramide]	–	–

melting point	Structure (SMILES)	pest or weed control at 200 ppm [1]	pest or weed control at 200 ppm [2]
81 to 82 °C	C#CCN(C(=O)OC(C)(C)C)c1cn(-c2cncc(F)c2)nc1C [Compound 601, tert-butyl 1-(5-fluoropyridin-3-yl)-3-methyl-1H-pyrazol-4-yl(prop-2-ynyl)carbamate]	80 to 100%	80 to 100%
–	C#CCN(C(=O)CCSC)c1cn(-c2cncc(F)c2)nc1C [Compound 605, N-(1-(5-fluoropyridin-3-yl)-3-methyl-1H-pyrazol-4-yl)-3-(methylthio)-N-(prop-2-ynyl)propanamide]	80 to 100%	80 to 100%
99 to 100 °C	C#CCN(C(=O)C(C)C)c1cn(-c2cncc(F)c2)nc1C [Compound 603]	80 to 100%	80 to 100%
–	C#CCN(C(=O)CCC(F)(F)C(F)(F)F)c1cn(-c2cccnc2)nc1Cl [Compound 615]	0 to 80%	80 to 100%
–	C#CCN(C(=O)CCSCCC(F)(F)F)c1cn(-c2cccnc2)nc1C [Compound 627, N-(3-methyl-1-(pyridin-3-yl)-1H-pyrazol-4-yl)-N-(prop-2-yn-1-yl)-3-((3,3,3-trifluoropropyl)thio)propanamide]	80 to 100%	80 to 100%
89 to 90 °C	C#CCN(C(=O)C(C)C)c1cn(-c2cccnc2)nc1C [Compound 600]	80 to 100%	0 to 80%
–	C#CCN(C(=O)CS(C)(=O)=O)c1cn(-c2cccnc2)nc1Cl [Compound 621]	80 to 100%	80 to 100%
–	C#CCN(C(=O)CCC(F)(F)F)c1cn(-c2cccnc2)nc1C [Compound 597]	80 to 100%	0 to 80%
65 to 68 °C	C#CCN(C(=O)CSC)c1cn(-c2cccnc2)nc1Cl [Compound 612]	80 to 100%	80 to 100%
190 to 193 °C	CSCC(C)(C)C(=O)N(C)c1cc(-c2cccnc2)nn1C [Compound 3]	–	–
–	C#CCN(C(=O)CCC(F)(F)F)c1cn(-c2cccnc2)nc1Cl [Compound 609]	80 to 100%	80 to 100%
–	C#CCN(C(=O)OC(C)(C)C)c1cn(-c2cccnc2)nc1Cl [Compound 606, tert-butyl (3-chloro-1-(pyridin-3-yl)-1H-pyrazol-4-yl)(prop-2-yn-1-yl)carbamate]	80 to 100%	80 to 100%
144 to 146 °C	CC(C)C(=O)Nc1cn(-c2cncc(F)c2)nc1CO [Compound 435, N-(1-(5-fluoropyridin-3-yl)-3-(hydroxymethyl)-1H-pyrazol-4-yl)isobutyramide]	–	–
–	C#CCN(C(=O)CCC(C)(F)F)c1cn(-c2cccnc2)nc1Cl [Compound 614]	80 to 100%	80 to 100%
–	C#CCN(C(=O)C(C)CSC)c1cn(-c2cncc(F)c2)nc1C (stereo not drawn) [Compound 602]	80 to 100%	80 to 100%
–	C#CCN(C(=O)CCSC)c1cn(-c2cccnc2)nc1C [Compound 598]	80 to 100%	0 to 80%
–	C#CCN(C(=O)C[S+](C)[O-])c1cn(-c2cccnc2)nc1Cl (stereo not drawn) [Compound 620]	80 to 100%	80 to 100%
